Measured values as given in PMC6445162, “Effects of NS2B-NS3 protease and furin inhibition on West Nile and Dengue virus replication” (Journal of Enzyme Inhibition and Medicinal Chemistry, 2017).
Several values for one entry are separate records, joined by “and”; a condition that tells them apart may be missing. Equal entries are not always repeated. Peptide text beside a SMILES is read from it.

Tests used:
[1] = target: covalently linked WNV NS2B-NS3 protease construct (West Nile virus) (UniProt P06935); experiment: enzyme inhibition kinetics (Ki from Dixon plots, fluorogenic substrate); WNV NS2B-NS3 construct ~4 nM in assay; substrate Phac-Leu-Lys-Lys-Arg-AMC 50, 100 and 200 µM (KM = 47.5 µM); 100 mM Tris pH 8.5, 20% glycerol, 0.01% Triton X-100; room temperature; Ki the average of at least two measurements
[2] = target: T1, DENV serotype 2 NS2B-NS3 protease (Dengue virus type 2, UniProt P14340); experiment: Enzyme kinetic inhibition of DENV-2 NS2B-NS3 protease construct; assay type: biochemical, Dengue virus serotype 2; settings: for inhibition at 100 µM: 100 μM inhibitor in the presence of 125 μM substrate, read-out: % Inhib. (DENV)
T1 construct: The proteolytic activity of WNV and DENV is located in the N-terminal part of its NS3 protein; made in house
Protocol: (§1) All measurements were performed at room temperature in black flat-bottom 96-well plates (Nunc, Langenselbold, Germany) using microplate readers (Tecan Safire^2, λex = 380 nm and λem = 460 nm, Tecan Group Ltd., Männedorf, Switzerland or Fluoroskan Ascent type 374, λex = 355 nm and λem = 460 nm; Thermo Fisher Scientific, Vantaa, Finland). The assays with the flavivirus protease constructs were performed with 125 μl buffer (100 mM Tris pH 8.5 containing 20% glycerol, 0.01% Triton X-100, and the inhibitor), 50 μl substrate solution, and were started by addition of 25 μl enzyme solution (total assay volume 200 μl).
(§2) The DENV serotype 2 NS2B-NS3 protease construct was prepared from an identical clone as described by D’Arcy et al.[26] The purification of the protease was carried out in a buffer with high ion-strength and low pH value, in the absence of glycerol (20 mM Bis-Tris, 500 mM NaCl, pH 6.3), in order to prevent autolysis of the enzyme. Purification was performed by using a 5 ml HisTrapTM FF column (GE Healthcare) and subsequently, a HiLoad 16/60 SuperdexTM 75 column (GE Healthcare). The assays with the DENV-2 NS2B-NS3^pr° (∼39 nM in well) were performed with the substrate Phac-Lys-Arg-Arg-AMC ×3 TFA (125 µM, 62.5 µM and 31.25 µM in assay, KM = 60 µM). All Ki values were obtained from Dixon plots[27] and are the average of at least two measurements. Due to the weak potency of most compounds against the DENV-2 NS2B-NS3 protease construct, only the percentage of inhibition at a constant inhibitor concentration of 100 µM in the presence of 125 µM substrate was determined.

WNV NS2B-NS3 protease = target: T2, WNV NS2B-NS3 protease (West Nile virus, UniProt P06935); experiment: Enzyme kinetic inhibition of WNV NS2B-NS3 protease construct (Dixon plot); assay type: biochemical; settings: for Ki: covalently linked WNV NS2B-NS3 construct, substrate Phac-Leu-Lys-Lys-Arg-AMC, Dixon plots, average of at least two measurements
T2 construct: WNV NS2B 40-amino acid cofactor together with the NS3 protease domain
Protocol: as §1
For measurements with the covalently linked WNV NS2B-NS3 protease construct (∼4 nM in assay) the substrate Phac-Leu-Lys-Lys-Arg-AMC ×3 TFA (50 µM, 100 µM and 200 µM in assay, KM = 47.5 µM) was used, as described previously.
as §2

| Molecule | Ki [1] | Ki (WNV NS2B-NS3 protease) | inhibition at 100 µM [2] | further results |
| --- | --- | --- | --- | --- |
| 1-Adamantylacetic acid-Lys-Lys-Arg-NH2 (peptide) | 13.8 µM | – | – | – |
| 1-Adamantylglycine-Lys-Lys-Arg-NH2 (peptide) | 70 µM | – | – | – |
| 3,4-(Methylenedioxy)-Phac-Lys-Lys-Arg-NH2 (peptide) | 0.68 µM | – | – | – |
| 3,4-Cl2-Phac-Lys-Lys-Arg-Gly-NH2 (peptide) | 1.8 µM | – | – | – |
| 3,4-Cl2-Phac-Lys-Lys-Arg-NH2 (peptide) | 1.13 µM | – | – | – |
| 3-AMe-Phac-Lys-Lys-Arg-NH2 (peptide) | 0.36 µM | – | – | – |
| 3-GMe-Phac-Lys-Lys-Arg-NH2 (peptide) | 0.18 µM | – | – | – |
| 3-NH2-Phac-Lys-Lys-Arg-NH2 (peptide) | 1.2 µM | – | – | – |
| 4-AMe-Phac-Lys-Lys-Arg-NH2 (peptide) | 0.38 µM | – | – | – |
| 4-GMe-Phac-Lys-Lys-GCMA | – | 0.23 µM | – | Ki ([2]; DENV-2 NS2B-NS3 construct, substrate Phac-Lys-Arg-Arg-AMC, Dixon plots): 67 µM |
| 4-OH-Phac-Lys-Lys-Arg-NH2 (peptide) | 0.54 µM | – | – | – |
| 4-Phenyl-Phac-Lys-Lys-Arg-NH2 (peptide) | 0.53 µM | – | – | – |
| N=C(N)NC1CCC(CNC(=O)C(CCCCN)NC(=O)C(Cc2ccc(CN)cc2)NC(=O)Cc2ccccc2)CC1 (centres unmarked) [inhibitor 3, Phac-Phe(4-AMe)-Lys-GCMA] | – | 4.7 µM and 4.71 µM | 12.4% | fold reduced potency against WNV protease (WNV NS2B-NS3 protease; compared with reference inhibitor 2): 4 fold |
| N=C(N)NCc1ccc(CC(NC(=O)Cc2ccccc2)C(=O)NC(CCCCN)C(=O)NCC2CCC(NC(=N)N)CC2)cc1 (centres unmarked) [inhibitor 9] | – | 44 µM | – | – |
| N=C(N)NCCC[C@H](NC(=O)[C@H](CCCCN)NC(=O)[C@H](CCCCN)NC(=O)Cc1ccccc1)C(=O)NCC(=O)NCC(N)=O [inhibitor 17] (HELM PEPTIDE1{[O=C(Cc1ccccc1)[*:2]].K.K.R.G.G.[am]}$$$$V2.0) | – | 1.56 µM | 35.1% | – |
| N=C(N)NCCC[C@H](NC(=O)[C@H](CCCCN)NC(=O)[C@H](CCCCN)NC(=O)Cc1ccccc1)C(=O)NCC(N)=O [inhibitor 18] (HELM PEPTIDE1{[O=C(Cc1ccccc1)[*:2]].K.K.R.G.[am]}$$$$V2.0) | – | 2.56 µM | 30.7% | – |
| C[C@H](NC(=O)[C@H](CCCNC(=N)N)NC(=O)[C@H](CCCCN)NC(=O)[C@H](CCCCN)NC(=O)Cc1ccccc1)C(N)=O [inhibitor 19] (HELM PEPTIDE1{[O=C(Cc1ccccc1)[*:2]].K.K.R.A.[am]}$$$$V2.0) | – | 25 µM | 5.6% | – |
| C[C@@H](NC(=O)[C@H](CCCNC(=N)N)NC(=O)[C@H](CCCCN)NC(=O)[C@H](CCCCN)NC(=O)Cc1ccccc1)C(N)=O [inhibitor 20] (HELM PEPTIDE1{[O=C(Cc1ccccc1)[*:2]].K.K.R.[dA].[am]}$$$$V2.0) | – | 75 µM | 12% | – |
| CC(C)[C@H](NC(=O)[C@H](CCCNC(=N)N)NC(=O)[C@H](CCCCN)NC(=O)[C@H](CCCCN)NC(=O)Cc1ccccc1)C(N)=O [inhibitor 21] (HELM PEPTIDE1{[O=C(Cc1ccccc1)[*:2]].K.K.R.V.[am]}$$$$V2.0) | – | 105 µM | 12% | – |
| CC(C)(C)[C@H](NC(=O)[C@H](CCCNC(=N)N)NC(=O)[C@H](CCCCN)NC(=O)[C@H](CCCCN)NC(=O)Cc1ccccc1)C(N)=O [inhibitor 22] (HELM PEPTIDE1{[O=C(Cc1ccccc1)[*:2]].K.K.R.[CC(C)(C)[C@H](N[*:1])C(=O)[*:2]].[am]}$$$$V2.0) | – | 140 µM | 6.4% | – |
| N=C(N)NCCC[C@H](NC(=O)[C@H](CCCCN)NC(=O)[C@H](CCCCN)NC(=O)Cc1ccccc1)C(=O)N1CCC[C@H]1C(N)=O [inhibitor 23] (HELM PEPTIDE1{[O=C(Cc1ccccc1)[*:2]].K.K.R.P.[am]}$$$$V2.0) | – | 200 µM | 5.2% | – |
| CN(CC(N)=O)C(=O)[C@H](CCCNC(=N)N)NC(=O)[C@H](CCCCN)NC(=O)[C@H](CCCCN)NC(=O)Cc1ccccc1 [inhibitor 24] (HELM PEPTIDE1{[O=C(Cc1ccccc1)[*:2]].K.K.R.[Sar].[am]}$$$$V2.0) | – | 50 µM | 3.2% | – |
| N=C(N)NCCC[C@H](NC(=O)[C@H](CCCCN)NC(=O)[C@H](CCCCN)NC(=O)Cc1ccccc1)C(=O)NCCCC(N)=O [inhibitor 25] (HELM PEPTIDE1{[O=C(Cc1ccccc1)[*:2]].K.K.R.[O=C(CCCN[*:1])[*:2]].[am]}$$$$V2.0) | – | 15 µM | 26.3% | – |
| N=C(N)NCCC[C@H](NC(=O)[C@H](CCCCN)NC(=O)[C@H](CCCCN)NC(=O)Cc1ccccc1)C(=O)NCCCCCC(N)=O [inhibitor 26] (HELM PEPTIDE1{[O=C(Cc1ccccc1)[*:2]].K.K.R.[O=C(CCCCCN[*:1])[*:2]].[am]}$$$$V2.0) | – | 17 µM | – | – |

| Molecule | Ki [1] | Ki (WNV NS2B-NS3 protease) | inhibition at 100 µM [2] | further results |
| --- | --- | --- | --- | --- |
| N=C(N)NCCC[C@H](NC(=O)[C@H](CCCCN)NC(=O)[C@H](CCCCN)NC(=O)Cc1ccccc1)C(N)=O [inhibitor 27] (HELM PEPTIDE1{[O=C(Cc1ccccc1)[*:2]].K.K.R.[am]}$$$$V2.0) | – | 2.47 µM | 20.8% | – |
| N=C(N)NCCC[C@H](NC(=O)[C@H](CCCCN)NC(=O)[C@H](CCCCN)NC(=O)Cc1ccccc1)C(=O)O [inhibitor 28, Phac-Lys-Lys-Arg-OH] (HELM PEPTIDE1{[O=C(Cc1ccccc1)[*:2]].K.K.R}$$$$V2.0) | – | 27 µM | – | – |
| N=C(N)NCCC[C@H](NC(=O)[C@H](CCCCN)NC(=O)[C@H](CCCCN)NC(=O)Cc1ccc(Cl)c(Cl)c1)C(N)=O [inhibitor 29] | – | 1.13 µM | 25.1% | – |
| N=C(N)NCCC[C@H](NC(=O)[C@H](CCCCN)NC(=O)[C@H](CCCCN)NC(=O)Cc1ccc(Cl)c(Cl)c1)C(=O)NCC(N)=O [inhibitor 30] (HELM PEPTIDE1{[O=C(Cc1ccc(Cl)c(Cl)c1)[*:2]].K.K.R.G.[am]}$$$$V2.0) | – | 1.8 µM | 45% | – |
| N=C(N)NCCC[C@H](NC(=O)[C@H](CCCCN)NC(=O)[C@H](CCCCN)NC(=O)Cc1cccc(N)c1)C(N)=O [inhibitor 31] | – | 1.2 µM | 27.5% | – |
| N=C(N)NCCC[C@H](NC(=O)[C@H](CCCCN)NC(=O)[C@H](CCCCN)NC(=O)Cc1ccc2c(c1)OCO2)C(N)=O [inhibitor 32] | – | 0.68 µM | 19.9% | – |
| N=C(N)NCCC[C@H](NC(=O)[C@H](CCCCN)NC(=O)[C@H](CCCCN)NC(=O)Cc1ccc(O)cc1)C(N)=O [inhibitor 33] | – | 0.54 µM | 27.5% | – |
| N=C(N)NCCC[C@H](NC(=O)[C@H](CCCCN)NC(=O)[C@H](CCCCN)NC(=O)C(N)C1CCCCC1)C(N)=O (some centres unmarked) [inhibitor 42] (HELM PEPTIDE1{[NC(C(=O)[*:2])C1CCCCC1].K.K.R.[am]}$$$$V2.0) | – | – | 31.7% | – |
| AC-D/L-α-phenylglycine-Lys-Lys-Arg-NH2 (peptide) | 4.18 µM | – | – | – |
| Cyclohexylacetic acid-Lys-Lys-Arg-NH2 (peptide) | 4.8 µM | – | – | – |
| D/L-α-phenylglycine-Lys-Lys-Arg-NH2 (peptide) | 3.6 µM | – | – | – |
| Phac-Lys-Lys-Arg-Aca-NH2 (peptide) | 17 µM | – | – | – |
| Phac-Lys-Lys-Arg-Ala-NH2 (peptide) | 25 µM | – | – | – |
| Phac-Lys-Lys-Arg-DAla-NH2 (peptide) | 75 µM | – | – | – |
| Phac-Lys-Lys-Arg-Gaba-NH2 (peptide) | 15 µM | – | – | – |
| Phac-Lys-Lys-Arg-Gly-NH2 (peptide) | 2.56 µM | – | – | – |
| Phac-Lys-Lys-Arg-NH2 (peptide) | 2.47 µM | – | – | – |
| Phac-Lys-Lys-Arg-Pro-NH2 (peptide) | 200 µM | – | – | – |
| Phac-Lys-Lys-Arg-Sar-NH2 (peptide) | 50 µM | – | – | – |
| Phac-Lys-Lys-Arg-Tle-NH2 (peptide) | 140 µM | – | – | – |
| Phac-Lys-Lys-Arg-Val-NH2 (peptide) | 105 µM | – | – | – |
| α-Cyclohexylglycine-Lys-Lys-Arg-NH2 (peptide) | 26.3 µM | – | – | – |
| KKRGG (HELM PEPTIDE1{[O=C(Cc1ccccc1)[*:2]].K.K.R.G.G.[am]}$$$$V2.0; SMILES N=C(N)NCCC[C@H](NC(=O)[C@H](CCCCN)NC(=O)[C@H](CCCCN)NC(=O)Cc1ccccc1)C(=O)NCC(=O)NCC(N)=O) [Phac-Lys-Lys-Arg-Gly-Gly-NH2] | 1.56 µM | – | – | – |
